From patent US20050239656A1, “Pyridine compounds or salts thereof and herbicides containing the same” (priority 2002, published 2005)

Experiments:
rice (var. Nihonbare) = test: Test Example 3: paddy pot test, transplanted rice; format: in vivo, Oryza sativa L.; conditions: applied 4th day after transplantation, visually observed 21st day after application, 0 = non-treated, 100 = complete kill
How it was run: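 Visual crop-injury rating (0 = as untreated, 100 = complete kill, %) taken 21 days post-application. Treatment: formulated compound, water-diluted, pipetted into 3–4 cm flood water at a preset active-ingredient dose, 4 days after transplanting 2-leaf Nihonbare rice 3 cm deep in puddled paddy soil.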

redroot pigweed [1] = test: Test Example 1: foliage treatment, upland pot test; format: in vivo, Amaranthus retroflexus L.; conditions: active ingredient 500 g/ha, observed 18th to 23rd day, 0 = non-treated, 100 = complete kill
japanese bulrush = test: Test Example 3: paddy pot test, application under submerged conditions; format: in vivo, Scirpus juncoides; conditions: submerged application at 0.5 leaf stage, visually observed 14 days after application, 0 = non-treated, 100 = complete kill
How it was run: (§1)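 Paddy soil pots; seeds sown, lightly covered; flooded 0.5–1 cm in greenhouse; wapato tubers planted day 1–2; flood raised to 3–4 cm. Submerged pipette application at 0.5 leaf / primary leaf stage. Visual score day 14, 0–100%.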

prickly sida [2] = test: Test Example 1: foliage treatment, upland pot test; format: in vivo, Sida spinosa L.; conditions: active ingredient 500 g/ha, observed 18th to 23rd day, 0 = non-treated, 100 = complete kill
corn [3] = test: Test Example 2: soil surface treatment, upland pot test; format: in vivo, Zea mays L.; conditions: observed 20th to 28th day
How it was run: (§2)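 In this pre-emergence upland pot test, a small sprayer delivered the diluted compound formulation (1,500 L/ha water) to the soil surface the day after seeding. Plants were then observed, and control was scored from 0 to 100% some 20–28 days after treatment.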

crabgrass [4] = test: as above; format: in vivo, Digitaria sanguinalis L.; conditions: observed 20th to 28th day
How it was run: as §2

barnyardgrass [5] = test: Test Example 1: foliage treatment, upland pot test; format: in vivo, Echinochloa crus-galli L.; conditions: active ingredient 500 g/ha, observed 18th to 23rd day, 0 = non-treated, 100 = complete kill
How it was run: (§3)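 Visual growth-control scores (0 = untreated, 100 = complete kill) were taken 18–23 days after foliar spraying of a wettable powder or emulsifiable concentrate, diluted in 500 L/ha water with 0.1% (v/v) spreader. Treatment leaf stages: barnyardgrass 1.3–2.8, rice 1.2–2.6, wheat 1.3–2.4, soybean 0.1–0.4.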

redroot pigweed [6] = test: Test Example 2: soil surface treatment, upland pot test; format: in vivo, Amaranthus retroflexus L.; conditions: observed 20th to 28th day
How it was run: as §2

prickly sida [7] = test: as above; format: in vivo, Sida spinosa L.; conditions: observed 20th to 28th day
How it was run: as §2

green foxtail [8] = test: as above; format: in vivo, Setaria viridis L.; conditions: observed 20th to 28th day
How it was run: as §2

rice [9] = test: as above; format: in vivo, Oryza sativa L.; conditions: observed 20th to 28th day
How it was run: as §2

velvetleaf [10] = test: Test Example 1: foliage treatment, upland pot test; format: in vivo, Abutilon theophrasti MEDIC.; conditions: active ingredient 500 g/ha, observed 18th to 23rd day, 0 = non-treated, 100 = complete kill
velvetleaf [11] = test: Test Example 2: soil surface treatment, upland pot test; format: in vivo, Abutilon theophrasti MEDIC.; conditions: observed 20th to 28th day
How it was run: as §2

barnyardgrass [12] = test: as above; format: in vivo, Echinochloa crus-galli L.; conditions: observed 20th to 28th day
How it was run: as §2

barnyardgrass [13] = test: Test Example 3: paddy pot test, application under submerged conditions; format: in vivo, Echinochloa crus-galli L.; conditions: submerged application at 0.5 leaf stage, visually observed 14 days after application, 0 = non-treated, 100 = complete kill
How it was run: as §1

wheat [14] = test: Test Example 1: foliage treatment, upland pot test; format: in vivo, Triticum spp.; conditions: crop, active ingredient 500 g/ha, observed 18th to 23rd day, 0 = non-treated, 100 = complete kill
How it was run: as §3

rice [15] = test: Test Example 1: foliage treatment, upland pot test; format: in vivo, Oryza sativa L.; conditions: crop, active ingredient 500 g/ha, observed 18th to 23rd day, 0 = non-treated, 100 = complete kill
How it was run: as §3

soybean [16] = test: Test Example 2: soil surface treatment, upland pot test; format: in vivo, Glycine max Merr.; conditions: observed 20th to 28th day
How it was run: as §2

wheat [17] = test: as above; format: in vivo, Triticum spp.; conditions: observed 20th to 28th day
How it was run: as §2

green foxtail [18] = test: Test Example 1: foliage treatment, upland pot test; format: in vivo, Setaria viridis L.; conditions: active ingredient 500 g/ha, observed 18th to 23rd day, 0 = non-treated, 100 = complete kill
soybean [19] = test: Test Example 1: foliage treatment, upland pot test; format: in vivo, Glycine max Merr.; conditions: crop, active ingredient 500 g/ha, observed 18th to 23rd day, 0 = non-treated, 100 = complete kill
How it was run: as §3

corn [20] = test: Test Example 1: foliage treatment, upland pot test; format: in vivo, Zea mays L.; conditions: crop, active ingredient 500 g/ha, observed 18th to 23rd day, 0 = non-treated, 100 = complete kill
How it was run: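 Corn seeds were sown in upland field soil held in a 1/170,000 ha pot and grown to the 2.1 to 3.2 leaf stage. A wettable powder or emulsifiable concentrate of the test compound was diluted with water at 500 L/ha, given 0.1% (v/v) agricultural spreader, and sprayed onto the foliage with a small sprayer. Growth controlling degree (%) was scored visually 18th to 23rd days later, from 0 (non-treated) to 100 (complete kill).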

japanese ribbon wapato = test: Test Example 3: paddy pot test, application under submerged conditions; format: in vivo, Sagittaria pygniaea; conditions: active ingredient 250 g/ha; submerged application at primary leaf stage; visually observed 14 days after application; 0 = non-treated, 100 = complete kill
How it was run: as §1

crabgrass [21] = test: Test Example 1: foliage treatment, upland pot test; format: in vivo, Digitaria sanguinalis L.; conditions: active ingredient 500 g/ha, observed 18th to 23rd day, 0 = non-treated, 100 = complete kill

Row | Structure (SMILES) | Growth controlling degree (%) Rice (rice (var. Nihonbare); active ingredient 250 g/ha) | Growth controlling degree (%) Redroot pigweed (redroot pigweed [1]) | Growth controlling degree (%) Japanese bulrush (japanese bulrush; active ingredient 250 g/ha) | Growth controlling degree (%) Prickly sida (prickly sida [2]) | Growth controlling degree (%) Corn (corn [3]; active ingredient 250 g/ha) | Growth controlling degree (%) Crabgrass (crabgrass [4]; active ingredient 250 g/ha) | Growth controlling degree (%) Barnyardgrass (barnyardgrass [5]) | Growth controlling degree (%) Redroot pigweed (redroot pigweed [6]; active ingredient 250 g/ha) | Growth controlling degree (%) Prickly sida (prickly sida [7]; active ingredient 250 g/ha) | Growth controlling degree (%) Green foxtail (green foxtail [8]; active ingredient 250 g/ha) | Growth controlling degree (%) Rice (rice [9]; active ingredient 250 g/ha) | Growth controlling degree (%) Velvetleaf (velvetleaf [10]) | Growth controlling degree (%) Velvetleaf (velvetleaf [11]; active ingredient 250 g/ha) | Growth controlling degree (%) Barnyardgrass (barnyardgrass [13]; active ingredient 250 g/ha) | Growth controlling degree (%) wheat (wheat [14]) | Growth controlling degree (%) Rice (rice [15]) | Growth controlling degree (%) Green foxtail (green foxtail [18]) | Growth controlling degree (%) Soybean (soybean [19]) | Growth controlling degree (%) Corn (corn [20]) | Growth controlling degree (%) Crabgrass (crabgrass [21]) | other results
1 | COCC(=O)N(C)C(c1cnccc1C(F)(F)F)C(C)C (centres unmarked) [I-195] | 20% | 80% | 100% | 70% | 20% | 98% | 70% | 30% | 30% | 60% | 40% | 60% | 10% | 70% | 30% | 70% | 60% | 60% | 10% | 80% | Growth controlling degree (%) Barnyardgrass (barnyardgrass [12]; active ingredient 250 g/ha): 98%; Growth controlling degree (%) Soyabean (soybean [16]; active ingredient 250 g/ha): 10%; Growth controlling degree (%) wheat (wheat [17]; active ingredient 250 g/ha): 10%; Growth controlling degree (%) Japanese ribbon wapato (japanese ribbon wapato): 80%
2 | CC(C)C(c1cnccc1C(F)(F)F)N(C)C(=O)CC(C)(C)C (centres unmarked) [I-194] | 30% | 50% | 98% | 70% | 10% | 100% | 70% | 50% | 40% | 100% | 40% | 10% | 30% | 98% | 40% | 50% | 70% | 40% | 20% | 80% | Growth controlling degree (%) Barnyardgrass (barnyardgrass [12]; active ingredient 250 g/ha): 100%; Growth controlling degree (%) Soyabean (soybean [16]; active ingredient 250 g/ha): 10%; Growth controlling degree (%) wheat (wheat [17]; active ingredient 250 g/ha): 20%; Growth controlling degree (%) Japanese ribbon wapato (japanese ribbon wapato): 30%
3 | Cc1ccc(S(=O)(=O)N(C)C(c2cnccc2C(F)(F)F)C(C)C)cc1 (racemic) [I-130] | – | 70% | – | 80% | 20% | 98% | 70% | 10% | 50% | 95% | 40% | 70% | 10% | – | 10% | 40% | 60% | 40% | 70% | 80% | Growth controlling degree (%) Rice (rice (var. Nihonbare); active ingredient 125 g/ha): 10%; Growth controlling degree (%) Japanese bulrush (japanese bulrush; active ingredient 125 g/ha): 70%; Growth controlling degree (%) Barnyardgrass (barnyardgrass [12]; active ingredient 250 g/ha): 100%; Growth controlling degree (%) Barnyardgrass (barnyardgrass [13]; active ingredient 125 g/ha): 100%; Growth controlling degree (%) Soyabean (soybean [16]; active ingredient 250 g/ha): 10%; Growth controlling degree (%) wheat (wheat [17]; active ingredient 250 g/ha): 20%
4 | Cc1ccc(OC(C)C(=O)N(C)C(c2cnccc2C(F)(F)F)C(C)C)cc1 (mixture of isomers) [I-131] | 10% | 70% | 95% | 70% | – | – | 70% | – | – | – | – | 50% | – | 100% | 50% | 30% | 70% | 80% | 50% | 80% | Growth controlling degree (%) Corn (corn [3]; active ingredient 500 g/ha): 10%; Growth controlling degree (%) Crabgrass (crabgrass [4]; active ingredient 500 g/ha): 100%; Growth controlling degree (%) Redroot pigweed (redroot pigweed [6]; active ingredient 500 g/ha): 30%; Growth controlling degree (%) Prickly sida (prickly sida [7]; active ingredient 500 g/ha): 60%; Growth controlling degree (%) Green foxtail (green foxtail [8]; active ingredient 500 g/ha): 100%; Growth controlling degree (%) Rice (rice [9]; active ingredient 500 g/ha): 20%; Growth controlling degree (%) Velvetleaf (velvetleaf [11]; active ingredient 500 g/ha): 0%; Growth controlling degree (%) Barnyardgrass (barnyardgrass [12]; active ingredient 500 g/ha): 100%; Growth controlling degree (%) Soyabean (soybean [16]; active ingredient 500 g/ha): 40%; Growth controlling degree (%) wheat (wheat [17]; active ingredient 500 g/ha): 20%
5 | CC(Oc1ccc(F)cc1)C(=O)N(C)C(c1cnccc1C(F)(F)F)C(C)C (mixture of isomers) [I-133] | 10% | 70% | 95% | 80% | – | – | 70% | – | – | – | – | 70% | – | 100% | 40% | 40% | 70% | 80% | 80% | 70% | Growth controlling degree (%) Corn (corn [3]; active ingredient 500 g/ha): 50%; Growth controlling degree (%) Crabgrass (crabgrass [4]; active ingredient 500 g/ha): 98%; Growth controlling degree (%) Redroot pigweed (redroot pigweed [6]; active ingredient 500 g/ha): 50%; Growth controlling degree (%) Prickly sida (prickly sida [7]; active ingredient 500 g/ha): 80%; Growth controlling degree (%) Green foxtail (green foxtail [8]; active ingredient 500 g/ha): 100%; Growth controlling degree (%) Rice (rice [9]; active ingredient 500 g/ha): 70%; Growth controlling degree (%) Velvetleaf (velvetleaf [11]; active ingredient 500 g/ha): 50%; Growth controlling degree (%) Barnyardgrass (barnyardgrass [12]; active ingredient 500 g/ha): 100%; Growth controlling degree (%) Soyabean (soybean [16]; active ingredient 500 g/ha): 30%; Growth controlling degree (%) wheat (wheat [17]; active ingredient 500 g/ha): 40%
6 | CC(C)C(c1cnccc1C(F)(F)F)N(C)S(=O)(=O)c1ccc(F)cc1F (racemic) [I-127] | 0% | 20% | 70% | 70% | – | – | 70% | – | – | – | – | 60% | – | 100% | 0% | 30% | 50% | 60% | 40% | 95% | Growth controlling degree (%) Corn (corn [3]; active ingredient 500 g/ha): 10%; Growth controlling degree (%) Crabgrass (crabgrass [4]; active ingredient 500 g/ha): 90%; Growth controlling degree (%) Redroot pigweed (redroot pigweed [6]; active ingredient 500 g/ha): 60%; Growth controlling degree (%) Prickly sida (prickly sida [7]; active ingredient 500 g/ha): 50%; Growth controlling degree (%) Green foxtail (green foxtail [8]; active ingredient 500 g/ha): 100%; Growth controlling degree (%) Rice (rice [9]; active ingredient 500 g/ha): 20%; Growth controlling degree (%) Velvetleaf (velvetleaf [11]; active ingredient 500 g/ha): 40%; Growth controlling degree (%) Barnyardgrass (barnyardgrass [12]; active ingredient 500 g/ha): 100%; Growth controlling degree (%) Soyabean (soybean [16]; active ingredient 500 g/ha): 10%; Growth controlling degree (%) wheat (wheat [17]; active ingredient 500 g/ha): 30%
